Results taken from ChEMBL document CHEMBL4507316 (2021).

Legend:
[1] = molecular target: Aurora kinase C (Homo sapiens) (UniProt Q9UQB9); assay: Aurora-C ProQinase selectivity panel; conditions: Compound concentration 1.0 uM
[2] = molecular target: Phosphorylase b kinase gamma catalytic chain, liver/testis isoform (Homo sapiens) (UniProt P15735); assay: PHKG2 ProQinase selectivity panel; conditions: Compound concentration 1.0 uM
[3] = molecular target: Casein kinase I isoform gamma-1 (Homo sapiens) (UniProt Q9HCP0); assay: CK1-gamma1 ProQinase selectivity panel; conditions: Compound concentration 1.0 uM
[4] = molecular target: Interferon-induced, double-stranded RNA-activated protein kinase (Homo sapiens) (UniProt P19525); assay: EIF2AK2 ProQinase selectivity panel; conditions: Compound concentration 1.0 uM
[5] = molecular target: Proto-oncogene tyrosine-protein kinase Src (Homo sapiens) (UniProt P12931); assay: SRC ProQinase selectivity panel; conditions: Compound concentration 1.0 uM
[6] = molecular target: Cyclin-dependent kinase 9 (Homo sapiens) (UniProt P50750); assay: CDK9/CycT ProQinase selectivity panel; conditions: Compound concentration 1.0 uM
[7] = molecular target: BDNF/NT-3 growth factors receptor (Homo sapiens) (UniProt Q16620); assay: TRK-B ProQinase selectivity panel; conditions: Compound concentration 1.0 uM
[8] = molecular target: Vascular endothelial growth factor receptor 2 (Homo sapiens) (UniProt P35968); assay: VEGF-R2 ProQinase selectivity panel; conditions: Compound concentration 1.0 uM
[9] = molecular target: Receptor tyrosine-protein kinase erbB-2 (Homo sapiens) (UniProt P04626); assay: ERBB2 ProQinase selectivity panel; conditions: Compound concentration 1.0 uM
[10] = molecular target: Serine/threonine-protein kinase PAK 6 (Homo sapiens) (UniProt Q9NQU5); assay: PAK6 ProQinase selectivity panel; conditions: Compound concentration 1.0 uM
[11] = molecular target: MAP kinase-activated protein kinase 2 (Homo sapiens) (UniProt P49137); assay: MAPKAPK2 ProQinase selectivity panel; conditions: Compound concentration 1.0 uM
[12] = molecular target: Inhibitor of nuclear factor kappa-B kinase subunit epsilon (Homo sapiens) (UniProt Q14164); assay: IKK-epsilon ProQinase selectivity panel; conditions: Compound concentration 1.0 uM
[13] = molecular target: Mitogen-activated protein kinase kinase kinase 11 (Homo sapiens) (UniProt Q16584); assay: MAP3K11 ProQinase selectivity panel; conditions: Compound concentration 1.0 uM
[14] = test system: Hepatocyte growth factor receptor (Homo sapiens), P08581 [Y1230H]; assay: MET Y1230H ProQinase selectivity panel; conditions: Compound concentration 1.0 uM
[15] = molecular target: Myosin light chain kinase, smooth muscle (Homo sapiens) (UniProt Q15746); assay: MYLK ProQinase selectivity panel; conditions: Compound concentration 1.0 uM
[16] = molecular target: 5-hydroxytryptamine receptor 7 (Homo sapiens) (UniProt P34969); conditions: Compound concentration 10.0 uM
[17] = molecular target: D(1A) dopamine receptor (Homo sapiens) (UniProt P21728); conditions: Compound concentration 10.0 uM
[18] = molecular target: Misshapen-like kinase 1 (Homo sapiens) (UniProt Q8N4C8); assay: MINK1 ProQinase selectivity panel; conditions: Compound concentration 1.0 uM
[19] = molecular target: Cytoplasmic tyrosine-protein kinase BMX (Homo sapiens) (UniProt P51813); assay: BMX ProQinase selectivity panel; conditions: Compound concentration 1.0 uM
[20] = test system: Proto-oncogene tyrosine-protein kinase receptor Ret (Homo sapiens), P07949 [Y791F]; assay: RET Y791F ProQinase selectivity panel; conditions: Compound concentration 1.0 uM
[21] = molecular target: Platelet-derived growth factor receptor beta (Homo sapiens) (UniProt P09619); assay: PDGFR-beta ProQinase selectivity panel; conditions: Compound concentration 1.0 uM
[22] = molecular target: Tyrosine-protein kinase ABL1 (Homo sapiens) (UniProt P00519); assay: ABL1 wt ProQinase selectivity panel; conditions: Compound concentration 1.0 uM
[23] = molecular target: Hepatocyte growth factor receptor (Homo sapiens) (UniProt P08581); assay: MET wt ProQinase selectivity panel; conditions: Compound concentration 1.0 uM
[24] = test system: Tyrosine-protein kinase ABL1 (Homo sapiens), P00519 [E255K]; assay: ABL1 E255K ProQinase selectivity panel; conditions: Compound concentration 1.0 uM
[25] = molecular target: Proto-oncogene tyrosine-protein kinase ROS (Homo sapiens) (UniProt P08922); assay: ROS ProQinase selectivity panel; conditions: Compound concentration 1.0 uM
[26] = molecular target: Vascular endothelial growth factor receptor 3 (Homo sapiens) (UniProt P35916); assay: VEGF-R3 ProQinase selectivity panel; conditions: Compound concentration 1.0 uM
[27] = molecular target: G protein-coupled receptor kinase 6 (Homo sapiens) (UniProt P43250); assay: GRK6 ProQinase selectivity panel; conditions: Compound concentration 1.0 uM
[28] = molecular target: Mitogen-activated protein kinase kinase kinase 8 (Homo sapiens) (UniProt P41279); assay: COT ProQinase selectivity panel; conditions: Compound concentration 1.0 uM
[29] = molecular target: 5-hydroxytryptamine receptor 3A (Homo sapiens) (UniProt P46098); conditions: Compound concentration 10.0 uM
[30] = molecular target: Serine/threonine-protein kinase BRSK1 (Homo sapiens) (UniProt Q8TDC3); assay: BRSK1 ProQinase selectivity panel; conditions: Compound concentration 1.0 uM
[31] = molecular target: 5-hydroxytryptamine receptor 6 (Homo sapiens) (UniProt P50406); conditions: Compound concentration 10.0 uM
[32] = molecular target: 5-hydroxytryptamine receptor 2C (Homo sapiens) (UniProt P28335); conditions: Compound concentration 10.0 uM
[33] = molecular target: Receptor tyrosine-protein kinase erbB-4 (Homo sapiens) (UniProt Q15303); assay: ERBB4 ProQinase selectivity panel; conditions: Compound concentration 1.0 uM
[34] = molecular target: Dual specificity protein kinase TTK (Homo sapiens) (UniProt P33981); assay: TTK ProQinase selectivity panel; conditions: Compound concentration 1.0 uM
[35] = test system: Serine/threonine-protein kinase B-raf (Homo sapiens), P15056 [V600E]; assay: B-RAF V600E ProQinase selectivity panel; conditions: Compound concentration 1.0 uM
[36] = molecular target: Tyrosine-protein kinase ITK/TSK (Homo sapiens) (UniProt Q08881); assay: ITK ProQinase selectivity panel; conditions: Compound concentration 1.0 uM
[37] = molecular target: Muscarinic acetylcholine receptor M3 (Homo sapiens) (UniProt P20309); conditions: Compound concentration 10.0 uM
[38] = molecular target: Calcium/calmodulin-dependent protein kinase type 1D (Homo sapiens) (UniProt Q8IU85); assay: CAMK1D ProQinase selectivity panel; conditions: Compound concentration 1.0 uM
[39] = molecular target: D(1B) dopamine receptor (Homo sapiens) (UniProt P21918); conditions: Compound concentration 10.0 uM
[40] = molecular target: Interleukin-1 receptor-associated kinase 1 (Homo sapiens) (UniProt P51617); assay: IRAK1 ProQinase selectivity panel; conditions: Compound concentration 1.0 uM
[41] = molecular target: Activated CDC42 kinase 1 (Homo sapiens) (UniProt Q07912); assay: ACK1 ProQinase selectivity panel; conditions: Compound concentration 1.0 uM
[42] = molecular target: NT-3 growth factor receptor (Homo sapiens) (UniProt Q16288); assay: TRK-C ProQinase selectivity panel; conditions: Compound concentration 1.0 uM
[43] = molecular target: GABA-A receptor; anion channel (Rattus norvegicus) (UniProt O09028+P15431+P18506+P18508+P19969+P20236+P23574+P23576+P28471+P28473+P30191+P62813+P63079+P63138+Q91ZM7+Q9ES14); conditions: Compound concentration 10.0 uM
[44] = molecular target: Non-receptor tyrosine-protein kinase TYK2 (Homo sapiens) (UniProt P29597); assay: TYK2 ProQinase selectivity panel; conditions: Compound concentration 1.0 uM
[45] = molecular target: Mitogen-activated protein kinase kinase kinase 5 (Homo sapiens) (UniProt Q99683); assay: ASK1 ProQinase selectivity panel; conditions: Compound concentration 1.0 uM
[46] = molecular target: Glycogen synthase kinase-3 alpha (Homo sapiens) (UniProt P49840); assay: GSK3-alpha ProQinase selectivity panel; conditions: Compound concentration 1.0 uM
[47] = molecular target: D(3) dopamine receptor (Homo sapiens) (UniProt P35462); conditions: Compound concentration 10.0 uM

Chain of Mitogen-activated protein kinase kinase kinase 5 (Homo sapiens) (Q99683 whole entry): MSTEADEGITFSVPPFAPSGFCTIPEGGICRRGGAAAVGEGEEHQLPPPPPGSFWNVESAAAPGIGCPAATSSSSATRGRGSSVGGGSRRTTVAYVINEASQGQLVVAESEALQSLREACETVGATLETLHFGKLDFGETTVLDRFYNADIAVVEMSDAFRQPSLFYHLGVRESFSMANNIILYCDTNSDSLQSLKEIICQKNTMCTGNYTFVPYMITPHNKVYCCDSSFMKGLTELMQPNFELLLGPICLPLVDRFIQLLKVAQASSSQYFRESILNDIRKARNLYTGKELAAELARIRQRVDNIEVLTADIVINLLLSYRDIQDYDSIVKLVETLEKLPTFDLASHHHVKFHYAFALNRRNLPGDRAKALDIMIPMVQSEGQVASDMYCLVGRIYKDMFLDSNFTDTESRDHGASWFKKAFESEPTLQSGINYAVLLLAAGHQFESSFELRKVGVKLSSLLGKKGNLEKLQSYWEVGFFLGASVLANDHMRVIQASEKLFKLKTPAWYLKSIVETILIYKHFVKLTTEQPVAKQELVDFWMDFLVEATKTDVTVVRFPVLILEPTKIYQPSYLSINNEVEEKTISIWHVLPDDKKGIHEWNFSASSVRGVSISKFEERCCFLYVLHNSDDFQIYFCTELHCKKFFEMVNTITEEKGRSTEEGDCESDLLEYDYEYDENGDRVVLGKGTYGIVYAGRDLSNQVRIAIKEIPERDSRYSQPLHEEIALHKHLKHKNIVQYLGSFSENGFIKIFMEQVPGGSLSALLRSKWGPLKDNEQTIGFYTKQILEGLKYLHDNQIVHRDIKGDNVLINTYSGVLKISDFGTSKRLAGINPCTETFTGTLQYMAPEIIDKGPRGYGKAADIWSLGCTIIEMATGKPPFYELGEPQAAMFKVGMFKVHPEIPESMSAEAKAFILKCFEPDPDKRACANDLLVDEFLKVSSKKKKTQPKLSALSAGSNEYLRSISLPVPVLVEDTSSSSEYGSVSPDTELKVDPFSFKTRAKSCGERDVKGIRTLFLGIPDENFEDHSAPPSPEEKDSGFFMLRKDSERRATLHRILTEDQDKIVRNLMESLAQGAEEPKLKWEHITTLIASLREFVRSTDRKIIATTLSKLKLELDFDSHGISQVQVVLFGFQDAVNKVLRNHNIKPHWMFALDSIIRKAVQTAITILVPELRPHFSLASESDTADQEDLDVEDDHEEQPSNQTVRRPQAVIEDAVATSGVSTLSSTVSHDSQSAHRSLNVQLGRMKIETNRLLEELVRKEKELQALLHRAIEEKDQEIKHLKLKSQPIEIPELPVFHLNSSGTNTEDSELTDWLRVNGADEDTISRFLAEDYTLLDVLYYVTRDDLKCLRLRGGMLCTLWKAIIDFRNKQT
Chain of Casein kinase I isoform gamma-1 (Homo sapiens) (Q9HCP0 whole entry, looked up, canonical isoform): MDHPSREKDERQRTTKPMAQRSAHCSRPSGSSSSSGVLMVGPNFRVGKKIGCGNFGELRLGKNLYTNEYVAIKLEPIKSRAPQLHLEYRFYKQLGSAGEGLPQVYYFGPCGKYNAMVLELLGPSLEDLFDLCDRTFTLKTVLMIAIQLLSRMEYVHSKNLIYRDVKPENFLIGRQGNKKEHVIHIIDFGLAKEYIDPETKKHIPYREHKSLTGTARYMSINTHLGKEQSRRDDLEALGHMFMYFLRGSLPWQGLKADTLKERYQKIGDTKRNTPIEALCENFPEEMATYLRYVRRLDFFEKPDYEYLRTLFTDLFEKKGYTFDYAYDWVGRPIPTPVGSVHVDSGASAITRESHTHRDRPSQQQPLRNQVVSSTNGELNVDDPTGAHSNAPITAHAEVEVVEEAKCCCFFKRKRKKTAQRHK
Chain of Vascular endothelial growth factor receptor 3 (Homo sapiens) (P35916 whole entry): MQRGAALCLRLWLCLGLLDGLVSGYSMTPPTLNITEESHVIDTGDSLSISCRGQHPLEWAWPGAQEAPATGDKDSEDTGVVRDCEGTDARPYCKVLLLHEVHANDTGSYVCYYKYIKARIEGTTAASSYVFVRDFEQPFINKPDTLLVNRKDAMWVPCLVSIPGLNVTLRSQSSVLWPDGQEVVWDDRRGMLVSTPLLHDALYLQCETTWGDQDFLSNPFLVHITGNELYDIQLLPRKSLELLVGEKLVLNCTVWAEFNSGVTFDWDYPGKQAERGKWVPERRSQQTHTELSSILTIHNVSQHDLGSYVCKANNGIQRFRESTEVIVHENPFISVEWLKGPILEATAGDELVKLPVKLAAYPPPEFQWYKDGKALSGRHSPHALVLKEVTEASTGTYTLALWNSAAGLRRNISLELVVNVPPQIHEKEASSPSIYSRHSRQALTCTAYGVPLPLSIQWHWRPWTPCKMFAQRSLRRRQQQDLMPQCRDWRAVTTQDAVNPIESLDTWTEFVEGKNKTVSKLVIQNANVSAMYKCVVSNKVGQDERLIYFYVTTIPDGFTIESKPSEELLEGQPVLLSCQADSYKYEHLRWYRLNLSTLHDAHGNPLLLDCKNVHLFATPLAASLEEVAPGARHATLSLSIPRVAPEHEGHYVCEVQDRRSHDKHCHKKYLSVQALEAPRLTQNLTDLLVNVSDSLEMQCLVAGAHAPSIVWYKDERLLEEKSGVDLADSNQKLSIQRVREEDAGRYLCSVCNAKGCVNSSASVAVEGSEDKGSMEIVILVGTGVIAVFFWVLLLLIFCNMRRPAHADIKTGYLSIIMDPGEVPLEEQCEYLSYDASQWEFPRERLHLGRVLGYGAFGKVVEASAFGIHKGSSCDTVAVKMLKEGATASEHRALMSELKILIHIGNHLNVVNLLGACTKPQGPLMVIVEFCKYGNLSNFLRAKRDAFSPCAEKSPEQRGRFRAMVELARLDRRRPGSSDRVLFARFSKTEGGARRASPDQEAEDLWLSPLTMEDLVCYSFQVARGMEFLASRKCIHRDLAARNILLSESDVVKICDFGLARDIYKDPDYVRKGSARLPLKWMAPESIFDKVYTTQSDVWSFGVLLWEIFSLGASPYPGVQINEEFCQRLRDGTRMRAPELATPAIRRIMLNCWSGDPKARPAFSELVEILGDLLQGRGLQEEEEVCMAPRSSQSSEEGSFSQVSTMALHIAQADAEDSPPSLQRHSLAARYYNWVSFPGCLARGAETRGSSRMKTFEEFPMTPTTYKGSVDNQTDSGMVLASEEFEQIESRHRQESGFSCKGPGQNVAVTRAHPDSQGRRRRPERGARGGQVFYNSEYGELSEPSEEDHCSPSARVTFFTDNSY
Chain of D(1A) dopamine receptor (Homo sapiens) (P21728 whole entry): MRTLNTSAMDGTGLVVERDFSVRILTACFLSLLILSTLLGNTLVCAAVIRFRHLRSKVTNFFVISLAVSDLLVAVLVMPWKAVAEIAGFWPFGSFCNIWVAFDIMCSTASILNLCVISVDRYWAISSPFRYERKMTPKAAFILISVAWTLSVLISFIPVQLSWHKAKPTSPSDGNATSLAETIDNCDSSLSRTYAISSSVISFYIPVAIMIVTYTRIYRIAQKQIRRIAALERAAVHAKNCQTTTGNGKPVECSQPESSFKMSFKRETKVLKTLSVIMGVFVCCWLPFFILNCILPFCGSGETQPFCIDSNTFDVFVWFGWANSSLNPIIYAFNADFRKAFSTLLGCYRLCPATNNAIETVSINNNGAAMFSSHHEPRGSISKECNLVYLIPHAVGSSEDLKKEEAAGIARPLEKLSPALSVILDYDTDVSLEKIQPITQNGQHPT
Chain of Aurora kinase C (Homo sapiens) (Q9UQB9 whole entry, canonical isoform): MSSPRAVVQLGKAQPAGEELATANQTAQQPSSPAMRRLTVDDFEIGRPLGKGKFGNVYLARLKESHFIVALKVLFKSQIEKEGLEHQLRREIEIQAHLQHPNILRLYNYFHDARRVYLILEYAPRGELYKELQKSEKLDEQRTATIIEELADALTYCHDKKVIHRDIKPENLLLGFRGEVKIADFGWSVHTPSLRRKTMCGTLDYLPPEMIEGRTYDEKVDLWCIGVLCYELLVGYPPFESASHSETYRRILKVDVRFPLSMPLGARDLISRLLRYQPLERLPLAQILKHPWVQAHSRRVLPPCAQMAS
Chain of Cytoplasmic tyrosine-protein kinase BMX (Homo sapiens) (P51813 whole entry): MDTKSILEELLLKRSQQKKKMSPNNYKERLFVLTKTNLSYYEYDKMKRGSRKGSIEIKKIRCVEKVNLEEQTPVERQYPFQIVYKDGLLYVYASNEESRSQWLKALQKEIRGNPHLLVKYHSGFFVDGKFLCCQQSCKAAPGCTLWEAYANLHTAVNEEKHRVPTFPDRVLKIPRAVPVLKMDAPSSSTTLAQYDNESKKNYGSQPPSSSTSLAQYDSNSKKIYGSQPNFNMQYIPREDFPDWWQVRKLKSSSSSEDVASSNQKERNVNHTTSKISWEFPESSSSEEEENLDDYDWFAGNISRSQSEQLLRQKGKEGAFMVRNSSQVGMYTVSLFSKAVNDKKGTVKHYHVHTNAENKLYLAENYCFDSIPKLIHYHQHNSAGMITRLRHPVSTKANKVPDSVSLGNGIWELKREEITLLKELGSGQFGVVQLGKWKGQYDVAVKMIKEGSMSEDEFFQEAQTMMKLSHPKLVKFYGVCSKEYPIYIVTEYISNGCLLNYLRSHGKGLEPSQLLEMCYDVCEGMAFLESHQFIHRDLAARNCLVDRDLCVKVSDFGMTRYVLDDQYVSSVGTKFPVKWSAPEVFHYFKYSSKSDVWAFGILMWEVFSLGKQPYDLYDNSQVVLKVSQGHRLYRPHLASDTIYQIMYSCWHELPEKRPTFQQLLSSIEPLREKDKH
Chain of Mitogen-activated protein kinase kinase kinase 8 (Homo sapiens) (P41279 whole entry): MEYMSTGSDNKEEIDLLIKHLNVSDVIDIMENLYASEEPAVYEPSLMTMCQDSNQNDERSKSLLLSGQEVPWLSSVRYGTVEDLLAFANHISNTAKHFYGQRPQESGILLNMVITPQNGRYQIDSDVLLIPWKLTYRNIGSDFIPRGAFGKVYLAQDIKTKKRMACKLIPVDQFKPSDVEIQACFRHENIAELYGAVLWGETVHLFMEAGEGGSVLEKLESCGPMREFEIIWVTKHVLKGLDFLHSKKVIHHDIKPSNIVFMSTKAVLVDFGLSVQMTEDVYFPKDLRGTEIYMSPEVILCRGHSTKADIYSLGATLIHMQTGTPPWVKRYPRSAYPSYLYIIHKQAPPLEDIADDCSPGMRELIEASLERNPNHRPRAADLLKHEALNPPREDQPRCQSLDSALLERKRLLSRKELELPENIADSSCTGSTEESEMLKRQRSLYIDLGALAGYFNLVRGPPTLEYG

% Residual activity with Skepinone-L [1]: 85% | % Residual activity with Skepinone-L [2]: 73% | % Residual activity with Skepinone-L [3]: 97% | % Residual activity with Skepinone-L [4]: 86% | % Residual activity with Skepinone-L [5]: 119% | % Residual activity with Skepinone-L [6]: 103% | % Residual activity with Skepinone-L [7]: 77% | % Residual activity with Skepinone-L [8]: 91% | % Residual activity with Skepinone-L [9]: 91% | % Residual activity with Skepinone-L [10]: 101% | % Residual activity with Skepinone-L [11]: 80% | % Residual activity with Skepinone-L [12]: 103% | % Residual activity with Skepinone-L [13]: 114% | % Residual activity with Skepinone-L [14]: 102% | % Residual activity with Skepinone-L [15]: 78% | inhibition [16]: -9.25% | inhibition [17]: 5.83% | % Residual activity with Skepinone-L [18]: 94% | % Residual activity with Skepinone-L [19]: 108% | % Residual activity with Skepinone-L [20]: 141% | % Residual activity with Skepinone-L [21]: 96% | % Residual activity with Skepinone-L [22]: 95% | % Residual activity with Skepinone-L [23]: 108% | % Residual activity with Skepinone-L [24]: 105% | % Residual activity with Skepinone-L [25]: 102% | % Residual activity with Skepinone-L [26]: 100% | % Residual activity with Skepinone-L [27]: 82% | % Residual activity with Skepinone-L [28]: 91% | inhibition [29]: 6.53% | % Residual activity with Skepinone-L [30]: 94% | inhibition [31]: 14.8% | inhibition [32]: 24% | % Residual activity with Skepinone-L [33]: 106% | % Residual activity with Skepinone-L [34]: 83% | % Residual activity with Skepinone-L [35]: 135% | % Residual activity with Skepinone-L [36]: 97% | inhibition [37]: 11.2% | % Residual activity with Skepinone-L [38]: 106% | inhibition [39]: 21% | % Residual activity with Skepinone-L [40]: 101% | % Residual activity with Skepinone-L [41]: 108% | % Residual activity with Skepinone-L [42]: 120% | inhibition [43]: 12.8% | % Residual activity with Skepinone-L [44]: 96% | % Residual activity with Skepinone-L [45]: 103% | % Residual activity with Skepinone-L [46]: 93% | inhibition [47]: -7.71%
Structure (SMILES): O=C1c2ccc(Nc3ccc(F)cc3F)cc2CCc2ccc(OC[C@H](O)CO)cc21 [Skepinone-L]
